Experiment: Solubility of dispersants in purified water
Format: physicochemical
Experimental: Evaluations of solubility were carried out by evaluating dispersants having solubility in purified water of 0.02% or more as “O” (soluble) and those having solubility of less than 0.02% as “x” (insoluble).

Compound | Solubility in water
O=P(O)(O)c1ccc(Nc2nc(Nc3ccc4ccccc4c3)nc(Nc3ccc4ccccc4c3)n2)cc1 [Dispersant F] | Salt forming substance: None Solubility in water: ∘
CC1(C)CC(Nc2nc(Nc3ccc(P(=O)(O)O)cc3)nc(Nc3ccc4[nH]c(=O)[nH]c4c3)n2)CC(C)(CNc2nc(Nc3ccc(P(=O)(O)O)cc3)nc(Nc3ccc4[nH]c(=O)[nH]c4c3)n2)C1 (stereo not shown) [Dispersant G] | Solubility in water: x (solubility of less than 0.02% as “x” (insoluble))
Cc1ccc(Nc2nc(Nc3ccccc3)nc(Nc3ccc4[nH]c(=O)[nH]c4c3)n2)cc1S(=O)(=O)O [Dispersant A] | Salt forming substance: None Solubility in water: ∘
Cc1ccc2cccc(Nc3nc(Nc4ccc(C(=O)O)cc4)nc(Nc4ccc(C(=O)O)cc4)n3)c2n1 [Dispersant J] | Solubility in water: x (solubility of less than 0.02% as “x” (insoluble))
O=C(O)c1cc2ccccc2c(N=Nc2ccc([N+](=O)[O-])cc2)c1O [Dispersant O] | Salt forming substance: None Solubility in water: ∘
CCn1c2ccccc2c2cc(Nc3nc(O)nc(Nc4ccc(O)c(C(=O)O)c4)n3)ccc21 [Dispersant H] | Salt forming substance: None Solubility in water: ∘
O=C1Cc2ccc(Nc3nc(Nc4ccc(C(=O)O)cc4)nc(Nc4ccc5[nH]c(=O)[nH]c5c4)n3)cc2C1 [Dispersant I] | Solubility in water: x (solubility of less than 0.02% as “x” (insoluble))

From patent US20100233532A1, “Composition for battery” (TOYO INK MFG. CO., LTD., priority 2007, published 2010)
